# Assay results published in ChEMBL document CHEMBL1201862, “PubChem BioAssay data set” (2004).
# The source made the active and inactive calls.
# How the values were obtained:
# [1] = molecular target: T1, Oxysterols receptor LXR-beta (Homo sapiens, UniProt P55055); format: functional, cell-based;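 note: agonist activity at LXR measured by a cell-based luminescence readout across a dose range, run as a counterscreen for daf-12 agonists; HEK293 cells with Gal4-LXR fusion and GAL4-driven luciferase reporter; potency for activation of Gal4-LXR reporter so compounds are agonists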
# T1 sequence (P55055 whole entry): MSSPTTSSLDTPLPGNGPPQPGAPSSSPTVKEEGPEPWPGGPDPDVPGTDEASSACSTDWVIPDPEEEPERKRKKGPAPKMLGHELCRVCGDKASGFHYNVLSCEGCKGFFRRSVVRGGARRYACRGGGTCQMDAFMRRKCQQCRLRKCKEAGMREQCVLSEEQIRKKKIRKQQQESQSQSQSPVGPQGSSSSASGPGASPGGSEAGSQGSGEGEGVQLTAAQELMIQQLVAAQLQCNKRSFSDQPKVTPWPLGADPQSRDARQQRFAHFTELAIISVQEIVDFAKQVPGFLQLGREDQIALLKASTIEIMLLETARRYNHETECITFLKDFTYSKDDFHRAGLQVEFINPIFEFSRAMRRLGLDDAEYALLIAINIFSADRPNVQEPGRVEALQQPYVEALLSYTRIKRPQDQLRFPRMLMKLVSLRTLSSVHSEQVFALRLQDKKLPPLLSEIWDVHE
# Beta-galactosidase = Beta-galactosidase (Escherichia coli, UniProt Q8VNN2); experiment: Dose response counterscreen for EBI2 assay utilizing the enzyme, b-galactosidase.; format: functional
# Beta-lactamase [2] = molecular target: Beta-lactamase (Salmonella choleraesuis (strain SC-B67), UniProt Q5J463); experiment: Epi-absorbance-based counterscreen for selective VIM-2 inhibitors: dose response biochemical high throughput screening assay to identify inhibitors of TEM-1 serine-beta-lactamase.
# [3] = molecular target: DNA dC->dU-editing enzyme APOBEC-3G (Homo sapiens, UniProt Q9HC16); experiment: Dose Response confirmation of small molecule APOBEC3G DNA Deaminase Inhibitors via a fluorescence-based single-stranded DNA deaminase assay. [Related pubchem assays (depositor defined):AID493012, AID493028]; format: functional
# [4] = molecular target: DNA dC->dU-editing enzyme APOBEC-3A (Homo sapiens, UniProt P31941); experiment: A3A deaminase inhibition for selectivity – biochemical, dose response (AID 504722); format: functional
# Beta-lactamase [5] = molecular target: T2, Beta-lactamase (Pseudomonas aeruginosa, UniProt Q79MP6); experiment: inhibition of IMP-1 beta-lactamase activity – biochemical, epi-absorbance, selectivity assay for VIM-2 inhibitor project, dose response (AID 1920)
# Beta-lactamase [6] = molecular target: T2, Beta-lactamase; experiment: […] counterscreen for selective VIM-2 inhibitors: dose response biochemical high throughput screening assay to identify inhibitors of IMP-1 metallo-beta-lactamase.
# Albumin = Albumin (Bos taurus, UniProt P02769); experiment: Counterscreen for inhibitors of T-cell receptor (TCR)-CD3 interaction: Fluorescence-based biochemical high throughput dose response assay to identify inhibitors of T-cell receptor (TCR)-CD3 interaction using a TAMRA-labeled BSA probe.; format: functional
# cells = format: functional, cell-based
# Paired box protein Pax-8 = Paired box protein Pax-8 (Homo sapiens, UniProt Q06710); experiment: PAX8 transcriptional activity inhibition in RMG-I – RMG-I cells, luciferase, cherry-pick, dose response (AID 687027); format: functional, cell-based;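 note: luciferase reporter driven by Pax8 target thyroperoxidase promoter measured by SteadyGlo luminescence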
# [7] = molecular target: T3, Nuclear receptor subfamily 0 group B member 1 (Homo sapiens, UniProt P51843); format: functional, cell-based;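 note: HEK293T cells transfected with SF-1 and DAX-1 plus StAR promoter luciferase reporter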
# T3 sequence (P51843 whole entry): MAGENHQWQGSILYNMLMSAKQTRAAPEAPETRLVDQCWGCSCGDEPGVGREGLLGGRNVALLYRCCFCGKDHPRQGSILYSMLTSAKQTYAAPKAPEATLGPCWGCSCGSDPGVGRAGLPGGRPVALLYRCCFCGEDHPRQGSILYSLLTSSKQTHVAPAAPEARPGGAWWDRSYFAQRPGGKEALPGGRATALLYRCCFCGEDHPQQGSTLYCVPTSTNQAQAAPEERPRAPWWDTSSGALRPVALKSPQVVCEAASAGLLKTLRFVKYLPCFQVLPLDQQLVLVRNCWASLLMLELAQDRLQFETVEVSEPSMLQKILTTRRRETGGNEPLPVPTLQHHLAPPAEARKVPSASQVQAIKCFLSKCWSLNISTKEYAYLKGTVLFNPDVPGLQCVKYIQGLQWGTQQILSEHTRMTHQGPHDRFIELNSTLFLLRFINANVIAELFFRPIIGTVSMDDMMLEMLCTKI
# Vero = experiment: viability loss in Vero cells – cell-based, plate reader, cherry-pick samples, cytotoxicity control, dose response (AID 687020); format: functional; settings: Chlorocebus sabaeus
# [8] = molecular target: Melanin-concentrating hormone receptor 1 (Homo sapiens, UniProt Q99705); experiment: Fluorescence-based counterscreen for antagonists of the G-protein coupled receptor 7 (GPR7): cell-based high throughput dose response assay to identify antagonists of the melanin-concentrating hormone receptor 1 (MCHR1).; format: functional
# [9] = molecular target: T4, Long-chain-fatty-acid--AMP ligase FadD28 (Mycobacterium tuberculosis, UniProt P9WQ59); experiment: Fluorescence polarization aasay to screen for inhibitors that compete for the binding of FadD28 to a bisubstrate Measured in Biochemical System Using Plate Reader - 2147-01_Inhibitor_Dose_CherryPick_Activity.; format: functional, Mycobacterium tuberculosis H37Rv
# T4 sequence (P9WQ59 whole entry): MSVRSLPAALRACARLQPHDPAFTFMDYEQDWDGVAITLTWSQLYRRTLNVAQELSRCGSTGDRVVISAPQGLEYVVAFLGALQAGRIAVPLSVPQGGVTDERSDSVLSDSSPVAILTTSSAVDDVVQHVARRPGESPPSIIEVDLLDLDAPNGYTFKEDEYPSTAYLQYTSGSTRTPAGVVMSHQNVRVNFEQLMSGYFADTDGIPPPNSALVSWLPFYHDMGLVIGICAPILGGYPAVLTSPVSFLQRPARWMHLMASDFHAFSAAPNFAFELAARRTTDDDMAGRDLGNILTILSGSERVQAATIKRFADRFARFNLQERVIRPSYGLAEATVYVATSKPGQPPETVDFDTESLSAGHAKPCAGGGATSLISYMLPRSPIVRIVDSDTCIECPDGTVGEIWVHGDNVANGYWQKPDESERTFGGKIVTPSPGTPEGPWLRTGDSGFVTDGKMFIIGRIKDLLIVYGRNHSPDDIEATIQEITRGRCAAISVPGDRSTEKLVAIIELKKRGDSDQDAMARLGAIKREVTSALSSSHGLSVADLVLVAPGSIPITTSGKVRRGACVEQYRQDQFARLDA
# [10] = molecular target: 5-hydroxytryptamine receptor 2A (Mus musculus, UniProt P35363); format: functional, cell-based;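 note: CHO-K1 cells with tagged receptor and beta-arrestin; agonist potency measured as compound-induced activation of the receptor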
# [11] = molecular target: T5, Rac GTPase-activating protein 1 (Homo sapiens, UniProt Q9H0H5); experiment: blockers of MgcRacGAP-driven Rac1 GTP hydrolysis – biochemical, ADP Hunter fluorescence, primary and confirmatory, confirmation (AID 624330); format: functional
# T5 sequence (Q9H0H5 whole entry): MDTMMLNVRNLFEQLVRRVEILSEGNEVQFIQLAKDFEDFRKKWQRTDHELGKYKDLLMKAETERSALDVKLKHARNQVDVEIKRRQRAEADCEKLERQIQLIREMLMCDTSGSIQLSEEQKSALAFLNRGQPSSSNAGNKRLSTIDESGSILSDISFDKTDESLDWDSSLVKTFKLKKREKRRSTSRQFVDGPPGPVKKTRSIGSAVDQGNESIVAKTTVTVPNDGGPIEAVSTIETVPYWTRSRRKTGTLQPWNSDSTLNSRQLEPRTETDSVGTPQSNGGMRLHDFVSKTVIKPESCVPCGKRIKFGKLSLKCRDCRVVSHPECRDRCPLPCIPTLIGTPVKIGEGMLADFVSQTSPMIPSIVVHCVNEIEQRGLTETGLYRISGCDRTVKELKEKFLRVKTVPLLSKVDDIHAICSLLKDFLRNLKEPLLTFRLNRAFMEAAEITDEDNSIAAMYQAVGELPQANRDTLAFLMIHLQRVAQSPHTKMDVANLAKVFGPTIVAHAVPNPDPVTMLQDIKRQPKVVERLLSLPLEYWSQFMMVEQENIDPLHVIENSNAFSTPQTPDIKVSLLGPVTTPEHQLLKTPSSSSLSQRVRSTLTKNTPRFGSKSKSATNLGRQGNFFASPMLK
# [12] = molecular target: T6, Neuropeptides B/W receptor type 1 (Homo sapiens, UniProt P48145); experiment: Fluorescence-based dose response cell-based high throughput screening assay to identify antagonists of the G-protein coupled receptor 7 (GPR7). [Related pubchem assays: 1952 (Screening assay (GPR7 antagonists).), 1880 (Summary AID.)]; format: functional
# T6 sequence (P48145 whole entry): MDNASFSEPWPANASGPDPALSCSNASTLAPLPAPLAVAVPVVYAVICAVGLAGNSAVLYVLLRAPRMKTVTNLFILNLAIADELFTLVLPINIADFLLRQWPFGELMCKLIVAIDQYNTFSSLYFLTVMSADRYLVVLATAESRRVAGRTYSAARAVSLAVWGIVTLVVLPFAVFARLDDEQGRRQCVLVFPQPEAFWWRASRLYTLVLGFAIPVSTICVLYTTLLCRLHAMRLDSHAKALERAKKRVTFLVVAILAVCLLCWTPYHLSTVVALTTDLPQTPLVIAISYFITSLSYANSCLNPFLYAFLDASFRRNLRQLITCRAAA
# Mu-type opioid receptor = Mu-type opioid receptor (Homo sapiens, UniProt P35372); format: functional, cell-based;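 note: U2OS cells with beta-arrestin recruitment to OPRM1 by beta-gal complementation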
# [13] = general mammalian cell viability loss – activator set, cherry-pick, cytotoxicity control for miR-122 modulator project, dose response (AID 720690); format: functional, cell-based;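 note: HEK293T human cells scored for general mammalian cytotoxicity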
# [14] = activation of miR-122 Renilla sensor silencing – cell-based, Huh7 psiCHECK-miR122, Renilla luciferase, cherry-picked, dose response (AID 651956); format: functional;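 note: huh7 hepatoma cells stably carrying a psiCHECK-2 miR-122 sensor plasmid; renilla luciferase signal reporting endogenous miR-122 activity after 48 h compound exposure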
# [15] = molecular target: T7, Botulinum neurotoxin type A (Clostridium botulinum (strain Hall / ATCC 3502 / NCTC 13319 / Type A), UniProt P0DPI1); experiment: Confirmatory FRET assay using full length substrates for Botulinum neurotoxin light chain A protease, with Powder Set01.; format: functional
# [16] = molecular target: T7, Botulinum neurotoxin type A; experiment: High-throughput multiplex microsphere dose response for inhibitors of toxin protease, specifically Botulinum neurotoxin light chain A protease, compounds from Powder Set 01.; format: functional, Clostridium botulinum A str. ATCC 3502; settings: read-out: EC50_MICROM
# [17] = MITF Orthogonal Assay: SK-MEL-5 CTG Assay Measured in Cell-Based System Using Plate Reader - 2084-02_Inhibitor_Dose_DryPowder_Activity_Set7.; format: functional
# [18] = MITF: Counter assay: A375 proliferation Measured in Cell-Based System Using Plate Reader - 2084-03_Inhibitor_Dose_DryPowder_Activity_Set8.; format: functional; settings: A-375
# [19] = viability loss in mouse NIH3T3 cells – cell-based, CellTiter-Glo luminescence, dry powder, cytotoxicity control for PglD inhibitor project, dose response (AID 652044); format: functional
# HeLa = experiment: viability loss in HeLa cells – cell-based, ATP luminescence, cherry-pick samples, cytotoxicity control, dose response (AID 687004); format: functional; settings: Homo sapiens
# [20] = inhibitors of EBV LMP1 NF-kappaB signaling – cell-based, luciferase reporter, luminescence, dry powder, set 2, dose response (AID 624376); format: functional
# [21] = viability loss in HEK293 kidney cells – cell-based, cherry-picks, set 5, cytotoxicity control, dose response (AID 1053117); format: functional
# [22] = molecular target: Potassium channel subfamily K member 9 (Homo sapiens, UniProt Q9NPC2); experiment: KCNK9 flux blockade, concentration-response – cell-based, FluxOR thallium flux, selectivity assay for TASK1 inhibitor project, SAR follow-up (AID 652211); format: functional;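 note: potency is for inhibitors of the channel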
# T2 sequence (Q79MP6 whole entry): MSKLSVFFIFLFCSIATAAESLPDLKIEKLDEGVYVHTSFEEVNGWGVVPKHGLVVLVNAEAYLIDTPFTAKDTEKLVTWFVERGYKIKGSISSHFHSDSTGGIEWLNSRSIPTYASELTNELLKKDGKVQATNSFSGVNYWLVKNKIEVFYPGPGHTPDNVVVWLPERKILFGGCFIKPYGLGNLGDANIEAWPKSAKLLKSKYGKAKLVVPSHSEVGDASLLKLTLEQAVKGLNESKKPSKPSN
# T7 sequence (P0DPI1 2-448 limits assumed): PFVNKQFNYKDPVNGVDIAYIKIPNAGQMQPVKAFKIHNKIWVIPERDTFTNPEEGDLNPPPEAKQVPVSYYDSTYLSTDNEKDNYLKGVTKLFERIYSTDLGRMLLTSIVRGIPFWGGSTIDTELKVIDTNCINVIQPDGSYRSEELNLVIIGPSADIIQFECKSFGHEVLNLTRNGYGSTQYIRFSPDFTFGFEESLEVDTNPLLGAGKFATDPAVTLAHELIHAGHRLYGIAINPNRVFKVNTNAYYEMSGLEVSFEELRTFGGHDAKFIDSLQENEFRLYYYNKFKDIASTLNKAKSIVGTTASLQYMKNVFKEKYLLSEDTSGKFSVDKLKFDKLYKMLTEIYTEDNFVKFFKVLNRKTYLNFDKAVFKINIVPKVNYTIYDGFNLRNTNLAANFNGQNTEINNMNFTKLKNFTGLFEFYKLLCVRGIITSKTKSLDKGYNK
# Chain of Beta-lactamase (Salmonella choleraesuis (strain SC-B67), UniProt Q5J463) (Q5J463 whole entry): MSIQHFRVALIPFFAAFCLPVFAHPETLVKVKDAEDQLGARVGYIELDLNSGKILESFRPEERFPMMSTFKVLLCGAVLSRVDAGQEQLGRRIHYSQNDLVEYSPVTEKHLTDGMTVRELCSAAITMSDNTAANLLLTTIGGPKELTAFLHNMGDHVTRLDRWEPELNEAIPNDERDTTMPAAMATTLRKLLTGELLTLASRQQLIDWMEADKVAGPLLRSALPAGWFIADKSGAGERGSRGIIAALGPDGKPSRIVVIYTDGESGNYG
# Chain of DNA dC->dU-editing enzyme APOBEC-3G (Q9HC16 whole entry): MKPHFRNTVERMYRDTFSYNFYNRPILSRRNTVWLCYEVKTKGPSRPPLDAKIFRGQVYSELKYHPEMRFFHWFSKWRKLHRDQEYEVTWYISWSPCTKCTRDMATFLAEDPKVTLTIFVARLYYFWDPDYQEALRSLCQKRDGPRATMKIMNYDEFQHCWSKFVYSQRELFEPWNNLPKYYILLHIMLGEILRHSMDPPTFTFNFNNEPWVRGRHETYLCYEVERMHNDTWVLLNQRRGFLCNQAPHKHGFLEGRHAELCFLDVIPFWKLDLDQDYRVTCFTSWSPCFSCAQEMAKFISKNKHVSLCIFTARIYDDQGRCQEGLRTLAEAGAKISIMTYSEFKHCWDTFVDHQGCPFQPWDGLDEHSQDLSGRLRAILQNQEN
# Chain of Paired box protein Pax-8 (Q06710 whole entry): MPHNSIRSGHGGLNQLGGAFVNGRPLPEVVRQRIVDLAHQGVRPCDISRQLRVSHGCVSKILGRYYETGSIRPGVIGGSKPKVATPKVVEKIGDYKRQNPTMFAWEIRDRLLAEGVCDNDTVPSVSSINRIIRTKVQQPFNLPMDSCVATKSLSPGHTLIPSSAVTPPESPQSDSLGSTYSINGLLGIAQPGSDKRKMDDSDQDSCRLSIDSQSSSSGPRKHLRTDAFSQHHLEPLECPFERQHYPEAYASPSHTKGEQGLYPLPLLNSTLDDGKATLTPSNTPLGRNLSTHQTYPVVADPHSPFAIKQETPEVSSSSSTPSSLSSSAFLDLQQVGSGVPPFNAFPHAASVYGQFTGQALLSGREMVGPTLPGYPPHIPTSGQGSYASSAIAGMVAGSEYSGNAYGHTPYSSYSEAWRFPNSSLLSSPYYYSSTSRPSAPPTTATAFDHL
# Chain of Mu-type opioid receptor (P35372 whole entry): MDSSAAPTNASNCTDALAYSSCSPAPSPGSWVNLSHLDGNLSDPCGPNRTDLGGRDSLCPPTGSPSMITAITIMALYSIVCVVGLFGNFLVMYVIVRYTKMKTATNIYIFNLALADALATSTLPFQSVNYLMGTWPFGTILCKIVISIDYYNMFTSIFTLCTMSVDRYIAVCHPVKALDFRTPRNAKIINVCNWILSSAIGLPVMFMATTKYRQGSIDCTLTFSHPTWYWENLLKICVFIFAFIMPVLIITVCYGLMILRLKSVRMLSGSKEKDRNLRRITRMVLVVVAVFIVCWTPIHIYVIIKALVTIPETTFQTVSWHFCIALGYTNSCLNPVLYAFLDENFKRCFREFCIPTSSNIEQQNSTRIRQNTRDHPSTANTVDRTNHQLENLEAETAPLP
# Chain of Albumin (P02769 whole entry): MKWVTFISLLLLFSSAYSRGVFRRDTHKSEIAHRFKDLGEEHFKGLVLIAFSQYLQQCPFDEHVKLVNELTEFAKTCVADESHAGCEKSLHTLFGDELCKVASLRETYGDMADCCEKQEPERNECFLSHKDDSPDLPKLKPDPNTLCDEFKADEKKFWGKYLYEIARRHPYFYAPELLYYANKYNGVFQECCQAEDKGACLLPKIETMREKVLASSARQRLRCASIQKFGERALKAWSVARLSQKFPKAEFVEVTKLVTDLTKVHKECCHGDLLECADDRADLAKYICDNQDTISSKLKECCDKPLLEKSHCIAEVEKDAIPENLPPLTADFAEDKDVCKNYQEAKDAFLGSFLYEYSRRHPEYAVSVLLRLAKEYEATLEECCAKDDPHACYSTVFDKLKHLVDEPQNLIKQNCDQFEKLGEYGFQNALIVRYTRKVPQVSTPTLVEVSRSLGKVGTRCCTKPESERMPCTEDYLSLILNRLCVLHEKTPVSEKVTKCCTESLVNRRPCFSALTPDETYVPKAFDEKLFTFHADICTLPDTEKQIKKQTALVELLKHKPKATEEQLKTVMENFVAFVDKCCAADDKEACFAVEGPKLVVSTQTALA
# Chain of Beta-galactosidase (Q8VNN2 whole entry): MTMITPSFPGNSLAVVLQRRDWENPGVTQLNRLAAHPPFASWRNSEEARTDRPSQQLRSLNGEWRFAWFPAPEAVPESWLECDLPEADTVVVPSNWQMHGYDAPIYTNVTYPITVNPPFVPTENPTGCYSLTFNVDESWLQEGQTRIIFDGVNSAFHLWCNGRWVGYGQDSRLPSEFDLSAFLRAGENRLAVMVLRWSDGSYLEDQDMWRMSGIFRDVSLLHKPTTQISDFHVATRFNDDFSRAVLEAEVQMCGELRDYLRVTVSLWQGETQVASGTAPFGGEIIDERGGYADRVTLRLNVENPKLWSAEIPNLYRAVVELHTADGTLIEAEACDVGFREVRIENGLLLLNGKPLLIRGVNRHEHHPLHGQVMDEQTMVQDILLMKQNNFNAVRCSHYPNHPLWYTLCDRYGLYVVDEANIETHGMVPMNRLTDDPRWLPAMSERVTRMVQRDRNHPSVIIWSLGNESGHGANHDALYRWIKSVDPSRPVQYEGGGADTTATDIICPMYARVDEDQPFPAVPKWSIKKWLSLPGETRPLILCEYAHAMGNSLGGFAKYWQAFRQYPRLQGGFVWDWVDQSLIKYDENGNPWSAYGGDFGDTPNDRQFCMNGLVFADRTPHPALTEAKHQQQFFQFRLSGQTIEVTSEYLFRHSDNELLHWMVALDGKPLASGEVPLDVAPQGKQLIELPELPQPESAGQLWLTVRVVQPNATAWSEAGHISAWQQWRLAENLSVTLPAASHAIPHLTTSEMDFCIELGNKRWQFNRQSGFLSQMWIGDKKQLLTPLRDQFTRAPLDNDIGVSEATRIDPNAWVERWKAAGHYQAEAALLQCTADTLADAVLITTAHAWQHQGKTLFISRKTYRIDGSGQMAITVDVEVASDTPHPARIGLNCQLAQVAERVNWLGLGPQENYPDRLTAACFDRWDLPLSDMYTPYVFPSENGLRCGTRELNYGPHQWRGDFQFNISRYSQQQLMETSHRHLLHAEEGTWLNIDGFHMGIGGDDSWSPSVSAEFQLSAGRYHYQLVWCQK
# Chain of 5-hydroxytryptamine receptor 2A (P35363 whole entry): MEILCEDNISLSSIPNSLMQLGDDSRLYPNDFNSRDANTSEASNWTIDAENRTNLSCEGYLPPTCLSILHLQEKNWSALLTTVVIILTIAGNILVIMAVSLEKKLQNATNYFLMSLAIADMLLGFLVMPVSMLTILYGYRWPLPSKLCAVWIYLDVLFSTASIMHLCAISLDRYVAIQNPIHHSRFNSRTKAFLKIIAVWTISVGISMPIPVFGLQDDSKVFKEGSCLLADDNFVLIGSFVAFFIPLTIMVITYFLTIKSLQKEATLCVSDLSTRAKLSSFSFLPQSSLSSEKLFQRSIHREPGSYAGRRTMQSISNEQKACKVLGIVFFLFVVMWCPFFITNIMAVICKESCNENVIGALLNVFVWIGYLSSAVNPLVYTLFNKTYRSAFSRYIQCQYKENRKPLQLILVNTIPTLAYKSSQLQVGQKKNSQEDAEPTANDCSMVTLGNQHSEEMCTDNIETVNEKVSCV
# Chain of DNA dC->dU-editing enzyme APOBEC-3A (P31941 whole entry): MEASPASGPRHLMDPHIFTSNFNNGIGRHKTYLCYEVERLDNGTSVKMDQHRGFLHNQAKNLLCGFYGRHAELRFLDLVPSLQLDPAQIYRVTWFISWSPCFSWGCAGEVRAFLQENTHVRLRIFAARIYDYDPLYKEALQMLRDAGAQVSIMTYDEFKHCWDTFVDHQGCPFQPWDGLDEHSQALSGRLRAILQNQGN
# Chain of Melanin-concentrating hormone receptor 1 (Q99705 whole entry): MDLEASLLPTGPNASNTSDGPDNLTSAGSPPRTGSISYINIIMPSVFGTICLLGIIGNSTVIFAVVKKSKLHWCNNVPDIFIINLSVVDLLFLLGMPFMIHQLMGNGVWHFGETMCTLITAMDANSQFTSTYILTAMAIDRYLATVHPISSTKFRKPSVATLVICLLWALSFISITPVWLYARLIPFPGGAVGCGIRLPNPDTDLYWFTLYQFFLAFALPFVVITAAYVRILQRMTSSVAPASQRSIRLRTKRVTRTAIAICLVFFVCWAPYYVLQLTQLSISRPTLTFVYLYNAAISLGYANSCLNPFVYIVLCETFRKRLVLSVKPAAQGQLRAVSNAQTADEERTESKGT
structure (smiles),measurement,setting,value
O=C(Nc1ccc(Cl)cn1)c1cc2ccccc2o1,EC50,[1],> 67.5 µM (inactive)
Cc1ccc(Oc2ccc(Oc3ccc(C)cc3)nn2)cc1,IC50,Beta-galactosidase,> 80 µM (inactive)
Cn1c(-c2sccc2OCc2ccccc2)n[nH]c1=S,IC50,Beta-lactamase [2],> 59.6 µM (inactive)
same,IC50,[3],2.8 µM (active)
same,IC50,[4],> 100 µM (inactive)
same,IC50,Beta-lactamase [5],> 59.6 µM (inactive)
same,IC50,Beta-lactamase [6],> 59.6 µM (inactive)
O=C(NNC(=O)c1ccc2ccccc2c1O)c1cccs1,IC50,Albumin,> 94.1 µM (inactive)
COc1cc(-c2cnc3c(NC=O)cc(-c4ccc(C)cc4)cn23)cc(OC)c1OC,IC50,cells,> 67.5 µM (inactive)
same,AC50,Paired box protein Pax-8,< 0.26 µM (active)
same,IC50,[7],> 0.834 µM (active)
CCOC(=O)[C@@H]1[C@H]2COc3ccc(Br)cc3[C@@H]2N2C(=O)N(c3ccc(C)cc3)C(=O)[C@]12C,AC50,Vero,35.3 µM (active)
C/N=c1\scc(-c2ccc(F)cc2)n1/N=C/c1ccc(O)c(O)c1,IC50,[8],13 µM (not active)
same,AC50,[9],12.2 µM (active)
same,EC50,[10],5.08 µM (active)
same,IC50,[11],29.6 µM (active)
same,IC50,[12],> 14.6 µM (not active)
same,EC50,Mu-type opioid receptor,92.5 µM (inactive)
CN1C(=O)c2cc(NC(=O)c3cccc(F)c3)ccc2OC[C@H]2O[C@H](CC(=O)N3CCc4ccccc4C3)CC[C@@H]21,AC50,[13],31.3 µM (active)
same,AC50,[14],18.8 µM (active)
O=[N+]([O-])c1ccc([N+]2=N[C-](c3ccccc3)CC2c2ccccc2)cc1 (centres undefined),EC50,[15],1.1 µM (active)
same,EC50,[16],0.3 µM (active)
O=C1C=C(NCc2ccccc2)C(=O)c2ccccc21,AC50,[17],7.74 µM (active)
same,AC50,[18],> 70 µM (inactive)
CC(C)NC(=O)N(C)C[C@@H]1Oc2ccc(NC(=O)Cc3cn(C)c4ccccc34)cc2C(=O)N([C@H](C)CO)C[C@H]1C,AC50,[19],> 47 µM (inactive)
N#Cc1ccc(-c2ccc3c(c2)[C@H]2[C@H](CCN2C(=O)Cc2ccccc2)[C@@H](CO)N3)cc1,AC50,HeLa,28.5 µM (active)
C[C@H](NC(=O)C[C@H]1C[C@@H]2c3cc(NC(=O)c4cccnc4)ccc3O[C@@H]2[C@@H](CO)O1)c1ccccc1,AbsAC35,[20],164.54 µM
CN(C)C(=O)c1ccc(-c2ccc3c(c2)[C@@H]2[C@@H](CCN2C(=O)c2ccc(F)cc2)[C@H](CO)N3C)cc1,AC50,[21],> 52 µM (inactive)
COc1cccc(C(=O)Nc2cccc(NC(=O)c3cccc(C)c3)c2)c1,IC50,[22],29.3 µM (active)
